Source: a melting point compilation (Tetko et al.; mined from patent text by program, amines drawn as free bases though some values may be those of a salt)

Compound | melting point
CC(C)(C#N)c1cc(Cn2cncn2)cc(-c2ccc(OS(N)(=O)=O)cc2)c1 | 74 to 76 °C
OCc1cn(-c2ccc(SC(F)(F)F)c(Cl)c2)cn1 | 105 to 106 °C
CC(C)(C)c1cc(C(=O)NCC(=O)Nc2ccc(N=C(N)c3cccs3)cc2)cc(C(C)(C)C)c1O | > 250 °C
CCCCNc1c(N)cc(C(=O)O)cc1S(N)(=O)=O | 211 to 212 °C
CNc1nc(-c2ccncc2)n[nH]1 | 228 to 230 °C
CCCn1c(=O)cc(Cl)n(CC#N)c1=O | 83 to 84 °C
N#CSc1nc(C(F)(F)C(F)F)nc2ccccc12 | 112 to 114 °C
CNC(=S)SCCC(=O)O | 86 to 87 °C
O=Cc1ccc(NCc2cccc(Cl)c2)cn1 | 102 to 105 °C
CCc1nn2ccccc2c1[N+](=O)[O-] | 118 to 121 °C
COc1c(C(O)c2ncc([N+](=O)[O-])n2C)cc(O)cc1C(C)(C)C (centres undefined) | 125 to 128 °C
CC(=O)Nc1cc2c(cc1[N+](=O)[O-])OCOC2 | 158 to 159 °C
CC(=O)c1cc(C(C)=O)c(OCCCCC#N)cc1O | 105 to 106 °C
COCCOc1cc(N(C)S(=O)(=O)c2cccs2)c2[nH]c(C3=NCC(CC(N)=O)S3)cc2c1 (centres undefined) | 189 to 190 °C
CC(=O)OC1CSC(Oc2cnccc2Br)C(OC(C)=O)C1OC(C)=O (centres undefined) | 153 °C
NS(=O)(=O)c1cc(C(=O)c2csc3ccccc23)ccc1Cl | 154 to 156 °C
C=Cc1ccc(S(=O)(=O)Nc2ncnc(OCCO)c2Cc2c(OC)cccc2OC)cc1 | 138 to 139 °C
CCOC(=O)C[C@H](O)C[C@H](O)/C=C/c1c(-c2ccc(F)cc2)nc(N(C)S(C)(=O)=O)nc1C(C)C | 92 to 94 °C
COc1ccc(Cl)cc1C1C(=O)Nc2cc(C(F)(F)F)ccc21 (centres undefined) | 210 to 213 °C
COc1ccc(CNc2nc(OCc3ccccn3)ncc2C(=O)c2cc(OC)c(OC)c(OC)c2)cc1Cl | 129 °C

Compound | melting point
O=C(O)CCc1cnoc1-c1ccc([N+](=O)[O-])cc1 | 204 to 205 °C
COc1cccc2c1sc1[nH]c(=O)c(=O)[nH]c12 | > 300 °C
CCOC(=O)c1cccn1Cc1ccc(Cl)cc1N | 104 to 107 °C
CCc1nc2c(O)cc(C(=O)N(C)C)cc2n1C | 193 to 199 °C
O=C(NC1(C(=O)O)CCCCC1)OCc1ccccc1 | 152 to 154 °C
CCCn1c(=O)c2c(nc(C=Cc3cc(C)c(C)cc3S(=O)(=O)O)n2C)n(CCC)c1=O | > 280 °C
COc1cc([N+](=O)[O-])c2c3c(c4ccccc4nc13)C=CN2 | 220 to 223 °C
O=[N+]([O-])c1ccc(S(=O)(=O)CCCl)cc1 | 130 °C
CCC(C)(C)N1C(=O)C(=O)N(c2ccc(C#N)cc2)C1=S | 173 to 174 °C
N=C(N)Nc1nc(CSCCNC2=C([N+](=O)[O-])CCCN2)cs1 | 211 to 212 °C
CC(N)=NS(=O)(=O)C=Cc1c(Cl)cccc1Cl | 154 to 158 °C
c1ccc2sc3cc4oc5ccccc5sc4cc3oc2c1 | 223 °C
O=S(=O)(CCl)N(Cc1cccnc1)C1CCCCC1 | 67 to 72 °C
CCCCOC(=O)C=C(C)C=CC=C(C)C=Cc1c(C)c(C)c(OC)c(C)c1C | 230 to 233 °C
CN(C)c1noc(-c2ncn3c2COc2cc(F)ccc2-3)n1 | 239 to 240 °C
OC1(C=Cc2ccc(-c3cccnc3)cc2)CN2CCC1CC2 (centres undefined) | 195 to 198 °C
N#Cc1ccc(-c2ccc3cnc(Nc4ccc(N5CCOCC5)cc4)nn23)cn1 | 280 to 283 °C
Cc1cc(NS(=O)(=O)c2ccc(Br)cc2)cc(C)c1S(=O)(=O)C[N+](=O)[O-] | 164 to 166 °C
CC(=O)Nc1ccc(OCCCO[N+](=O)[O-])cc1 | 89 to 92 °C
CCNC(=O)NS(=O)(=O)c1cc2c(cc1OC)OCC(NC(=O)c1cc(Cl)ccc1OC)C2 (centres undefined) | 233 to 234 °C

Compound | melting point
N#Cc1cnc2cc3ccccc3cc2c1Nc1ccc(F)c(Cl)c1 | 257 to 259 °C
CC(=O)Oc1c(C)cc(C2C(=O)Oc3c2cc(C(C)(C)C)cc3C(C)(C)C)cc1C (centres undefined) | 165 to 166 °C
CC(C)(C)c1nn(-c2c(Cl)cc(C(F)(F)F)cc2Cl)c(N)c1Br | 228 to 231 °C
O=c1[nH]c(S)nnc1-c1cc(O)c(O)c([N+](=O)[O-])c1 | 282 to 284 °C
O=C1CSCCN1c1ccc(C(F)(F)F)cc1 | 79 to 80 °C
COC(=O)c1c(F)c(F)c(F)c(F)c1C(=O)OC | 68 to 70 °C
c1ccc2nc(CN(CCN(Cc3ccc4ccccc4n3)Cc3ccc4ccccc4n3)Cc3ccc4ccccc4n3)ccc2c1 | 196 to 198 °C
COc1ccc(N2CCOC(c3ccc(C(F)(F)F)cc3)C2)c(-c2ccc(N(C)C)cc2)n1 (centres undefined) | 160 to 161 °C
Cc1nc(Cl)sc1C=O | 77 to 78 °C
CC(O)=C(C#N)C(=O)Nc1cc(Cl)ccc1Cl | 143 to 144 °C
C1=C(c2ccc3c(c2)OCCO3)CCN(CCc2cccc3ccccc23)C1 | 170 to 180 °C
CCC(=O)OC1(C)CCCC2C3C=CC(C3)C21 (centres undefined) | 30 °C
CCCCC[C@H]1CC[C@H](c2ccc(Br)nn2)CC1 | 101 to 103 °C
CCCC[C@H](NS(=O)(=O)c1ccc(Br)cc1)C(=S)Nc1ccc(CC(=O)O)cc1 | 194 to 195 °C
CCOC(=O)c1cnn(-c2ccc(OC(F)(F)F)cc2)c1N | 102 to 103 °C
COc1ccc(N2CCN(c3c(C)c(C)c4c(c3C)C(C(C)(C)C)C(C)(C)O4)CC2)cc1 (centres undefined) | 144 to 146 °C
O=C(CCc1ccc(F)cc1)c1ccc(C(F)(F)F)cc1 | 66 to 67 °C
CC(C)(C)c1cc(C=O)cc(I)c1O | 124 °C
CCCCOc1ccc([N+](=O)[O-])c(C(=O)O)c1 | 82 to 84 °C

Results, then the molecule that gave them:

melting point | Compound
116 to 117 °C | COC(=O)c1cc2c(nc1C)C(COC(=O)Oc1ccc([N+](=O)[O-])cc1)CCCC2 (centres undefined)
233 to 234 °C | CC(C)Nc1c(NCc2ccccc2)cc(C(=O)O)cc1S(N)(=O)=O
142 to 144 °C | COc1cc2c(cc1C)C1(CO2)C(=O)N(Cc2ccccn2)c2ccccc21 (centres undefined)
249 to 251 °C | CC(C)=CCn1c(=O)c(C2=Nc3ccccc3S(=O)(=O)N2)c(O)c2ccccc21
> 250 °C | CN(C)C(=O)CN1CCC(c2ccc(Nc3nc4c(-c5ccc[nH]c5=O)cccn4n3)cc2)CC1
70 to 72 °C | CCCCCCOc1ccc(CCC(=O)O)cc1
129 to 130 °C | CC(C)C[C@H](NC(=O)CCc1ccccc1)C(=O)O
146 to 147 °C | CCOc1nn(Cc2cccc(OCCn3ncc4ccccc4c3=O)c2)cc1CCC(=O)O
260 to 262 °C | CC(C)(C)NC(=O)NCc1ccc2c(c1)CN(C1CCC(=O)NC1=O)C2=O (centres undefined)
181 to 183 °C | O=C(O)C(O)c1cccc(OCc2ccccc2Cl)c1OCc1ccncc1 (centres undefined)
125 to 127 °C | O=C(O)COc1cccc(CCc2cc(-c3ccccc3)n(-c3ccccc3)n2)c1
77 to 78 °C | C=CCNC(=O)Nc1nn(Cc2ccccc2)cc1C(=O)OCC
193 to 195 °C | O=C(O)c1cccc(CC2COc3ccc(OCc4ccc5ccccc5n4)cc3C2O)c1 (centres undefined)
228 to 230 °C | O=C(O)Cn1ccn(C2CCc3ccccc3C2)c1=S (centres undefined)
205 to 215 °C | Cn1c(N)cc(=O)n1-c1ccccc1
113 to 114 °C | CSc1noc(-c2ccc(OCCCCOc3ccccc3)cc2)c1C#N
186 to 187 °C | COC(=O)c1c(C(=O)OC)c2sc3ccccc3n2c1-c1ccc(F)cc1
209 to 211 °C | COc1ccc(C(=O)Nc2cccc(-c3cccc4c3/C(=C/c3ccc[nH]3)C(=O)N4)c2)cc1
121 to 124 °C | CCC1(CCCCN2CCN(c3ccc(F)c(Cl)c3)CC2)C(=O)Nc2ccccc21 (centres undefined)
84 °C | CC(C)(C)OC(=O)CN(Cc1cc(C(F)(F)F)cc(C(F)(F)F)c1)Cc1cc2ccccc2nc1Cl

melting point | Compound
210 to 211 °C | CCOC(=O)C1=C(C)NC2=C(C(=O)N(CCO)C2)C1c1ccccc1[N+](=O)[O-] (centres undefined)
131 to 133 °C | Cc1ccccc1Nc1c(C(=O)C(C)C)cnc2c(O)cccc12
161 to 163 °C | O=C(c1ccccc1)c1ccc(NC(=O)N2CCC3(CC2)OC(=O)c2ccccc23)cc1
133 to 136 °C | COc1ccc(OC)c(NC(=O)C2OC(=O)c3ccccc3C2c2ccc(F)cc2)c1 (centres undefined)
275 to 278 °C | C[C@@H](n1cnc2cc(-c3ccc(C(=N)NC#N)cc3)sc2c1=O)[C@](O)(Cn1cncn1)c1ccc(F)cc1F
113 to 115 °C | Cc1ccccc1NC(=O)c1c(C)nn(C)c1N
145 to 147 °C | Cc1c(-c2cccnc2)n(CCCC=CC(=O)O)c2ccccc12
146 to 149 °C | CCCNC(=S)Nc1ccnc(CCCCCN2C(=O)c3ccccc3C2=O)n1
267 to 268 °C | O=C(NCc1cocn1)c1cc(-n2cnn(Cc3ccc(F)cc3)c2=O)n[nH]1
173 °C | COc1ccc(C(=O)NC(C)(C#N)c2ccccn2)cc1 (centres undefined)
253 to 256 °C | C[C@@H](Nc1ncnc2[nH]c(-c3ccc(CN)cc3)cc12)c1ccccc1
115 °C | Clc1ccc2c(c1)CCc1cccnc1C2=C1CCN(Cc2cccnc2)CC1
150 to 155 °C | CC(C)(N)CNC(=O)CNC(=O)Cc1ccccc1
145 °C | c1ccc(-c2nc3ccccn3c2-c2ccnc(-c3ccc(N4CCOCC4)cc3)c2)nc1
148 to 150 °C | CCOC(Cc1ccc(OCCOC2c3ccccc3CCc3ccccc32)cc1)C(=O)O (centres undefined)
134 to 138 °C | CCCN(CCC)CC1CCN(CCNC(=O)N2c3ccccc3C(=O)Nc3cccnc32)C1 (centres undefined)
150 to 151 °C | O=C(COc1ccccc1)N[C@H]1C(=O)N[C@H]1C(=O)O (relative stereo)
129 to 132 °C | CC(C)N(CCO)c1nc(Nc2cccc(NS(C)(=O)=O)c2)nc2[nH]ccc12
210 to 212 °C | CCOC(=O)c1c(CC(=O)O)n(-c2ccc(OC(C)C)cc2)c2ccc(Oc3ncccc3C(N)=O)cc12
120 °C | CN(C)CCNC(=O)c1ccc2c(c1)CN(C(=O)CCCCCN1CCN(c3cccc(C(F)(F)F)c3)CC1)C2
